Measured values from patent US6420438B1, “1-amino-7-isoquinoline derivatives as serine protease inhibitors” (Tularik Limited, priority 1998, dated 2002).

Target: T1, human factor Xa (Homo sapiens, UniProt P00742)
T1 construct: Purified human factor Xa; purchased Alexis Corporation, Nottingham, UK
Experiment: Enzyme inhibition assay, chromogenic substrate pefachrome-FXA
Format: biochemical
Settings: room temperature, 0.1M phosphate buffer, pH7.4

T1 sequence (P00742 235-488 limits assumed): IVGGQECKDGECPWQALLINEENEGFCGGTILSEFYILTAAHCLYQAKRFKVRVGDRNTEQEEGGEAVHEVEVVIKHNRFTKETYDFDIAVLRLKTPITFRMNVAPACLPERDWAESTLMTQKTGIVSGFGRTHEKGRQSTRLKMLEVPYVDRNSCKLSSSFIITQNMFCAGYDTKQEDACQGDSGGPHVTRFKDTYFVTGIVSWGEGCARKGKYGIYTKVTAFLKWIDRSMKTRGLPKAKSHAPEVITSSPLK
T1 sequence (P00742 41-179 partner limits assumed): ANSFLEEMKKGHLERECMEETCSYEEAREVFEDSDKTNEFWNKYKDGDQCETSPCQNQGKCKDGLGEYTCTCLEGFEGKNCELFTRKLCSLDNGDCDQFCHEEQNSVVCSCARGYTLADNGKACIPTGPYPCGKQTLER

**Q.** Which Ki does the source give for `CN1CCC(C2CCN(C(=O)[C@H](NC(=O)c3ccc4ccnc(N)c4c3)c3ccccc3)CC2)CC1` [Example 75, 1-Aminoisoquinolin-7-oyl-D-phenylglycine-4,4′-(1′-methyl)bipiperidinamide] here?
**A.** 0.008 µM

**Q.** `N=C(N)c1ccccc1` [benzamidine] was tested. Which Ki did it give?
**A.** 155 µM
